“And” between values parts separate entries of the source, which are not always exact repeats. Identical values can stand only once. The source made the active and inactive calls.
How the values were obtained:
[1] = target: Luciferin 4-monooxygenase (Photinus pyralis, UniProt P08659); test: firefly luciferase enzyme inhibitors, dose response, biochemical, luminescence (AID 1891)
[2] = Luminescence Cell-Based Dose Confirmation HTS to Identify Inhibitors of Platelet Dense Granule Release. [Related pubchem assays: 1663 (Primary HTS), 1678 (Summary of Project)]; type: functional
[3] = target: Photoreceptor-specific nuclear receptor (Homo sapiens, UniProt Q9Y5X4); type: functional, cell-based;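 also: CHO-S cells with Gal4-NCOR and VP16-NR2E3 two-hybrid luciferase reporter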
Sequence of Photoreceptor-specific nuclear receptor (Q9Y5X4 whole entry, the tested form may be a part): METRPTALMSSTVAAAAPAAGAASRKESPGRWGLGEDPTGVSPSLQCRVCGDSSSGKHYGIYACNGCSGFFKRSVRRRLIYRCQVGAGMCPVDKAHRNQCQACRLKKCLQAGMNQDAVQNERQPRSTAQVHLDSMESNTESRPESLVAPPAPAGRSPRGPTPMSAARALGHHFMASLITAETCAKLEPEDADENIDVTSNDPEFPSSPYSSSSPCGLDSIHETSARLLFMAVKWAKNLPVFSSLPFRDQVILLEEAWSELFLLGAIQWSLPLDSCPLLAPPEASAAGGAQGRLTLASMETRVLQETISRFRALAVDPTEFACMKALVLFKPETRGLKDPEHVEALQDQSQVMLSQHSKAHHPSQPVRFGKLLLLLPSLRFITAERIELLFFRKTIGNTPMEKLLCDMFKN

[4] = target: T1, High affinity choline transporter 1 (Homo sapiens, UniProt Q9GZV3); test: CHT inhibitors, dose response, cell-based, 10-point CRC, membrane potential dye (AID 588401); type: functional;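 also: membrane potential dye fluorescence of choline-evoked depolarization via CHT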
T1 sequence (Q9GZV3 whole entry): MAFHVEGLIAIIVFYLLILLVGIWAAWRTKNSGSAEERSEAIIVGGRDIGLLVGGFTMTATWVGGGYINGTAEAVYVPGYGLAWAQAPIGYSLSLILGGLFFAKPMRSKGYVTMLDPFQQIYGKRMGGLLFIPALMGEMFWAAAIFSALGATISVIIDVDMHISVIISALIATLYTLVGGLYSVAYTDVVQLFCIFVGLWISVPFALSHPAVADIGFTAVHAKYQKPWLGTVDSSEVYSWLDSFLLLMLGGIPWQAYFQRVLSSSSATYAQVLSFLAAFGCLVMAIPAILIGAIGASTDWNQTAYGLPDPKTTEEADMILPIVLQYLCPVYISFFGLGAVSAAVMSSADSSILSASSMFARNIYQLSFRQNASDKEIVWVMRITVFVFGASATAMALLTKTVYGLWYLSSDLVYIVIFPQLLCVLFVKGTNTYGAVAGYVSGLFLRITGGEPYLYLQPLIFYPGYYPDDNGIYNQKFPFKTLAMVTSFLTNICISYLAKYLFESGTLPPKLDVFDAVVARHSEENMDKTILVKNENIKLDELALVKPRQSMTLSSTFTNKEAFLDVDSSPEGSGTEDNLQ

[5] = target: T1, High affinity choline transporter 1; test: CHT inhibitors, dose response, cell-based, 5-point CRC, membrane potential dye (AID 504840); type: functional
[6] = target: Aryl hydrocarbon receptor (Homo sapiens, UniProt P35869); details: Potency;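 also: confirmatory quantitative high-throughput screen measuring activation of the AhR signaling pathway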
Sequence of Aryl hydrocarbon receptor (P35869 whole entry): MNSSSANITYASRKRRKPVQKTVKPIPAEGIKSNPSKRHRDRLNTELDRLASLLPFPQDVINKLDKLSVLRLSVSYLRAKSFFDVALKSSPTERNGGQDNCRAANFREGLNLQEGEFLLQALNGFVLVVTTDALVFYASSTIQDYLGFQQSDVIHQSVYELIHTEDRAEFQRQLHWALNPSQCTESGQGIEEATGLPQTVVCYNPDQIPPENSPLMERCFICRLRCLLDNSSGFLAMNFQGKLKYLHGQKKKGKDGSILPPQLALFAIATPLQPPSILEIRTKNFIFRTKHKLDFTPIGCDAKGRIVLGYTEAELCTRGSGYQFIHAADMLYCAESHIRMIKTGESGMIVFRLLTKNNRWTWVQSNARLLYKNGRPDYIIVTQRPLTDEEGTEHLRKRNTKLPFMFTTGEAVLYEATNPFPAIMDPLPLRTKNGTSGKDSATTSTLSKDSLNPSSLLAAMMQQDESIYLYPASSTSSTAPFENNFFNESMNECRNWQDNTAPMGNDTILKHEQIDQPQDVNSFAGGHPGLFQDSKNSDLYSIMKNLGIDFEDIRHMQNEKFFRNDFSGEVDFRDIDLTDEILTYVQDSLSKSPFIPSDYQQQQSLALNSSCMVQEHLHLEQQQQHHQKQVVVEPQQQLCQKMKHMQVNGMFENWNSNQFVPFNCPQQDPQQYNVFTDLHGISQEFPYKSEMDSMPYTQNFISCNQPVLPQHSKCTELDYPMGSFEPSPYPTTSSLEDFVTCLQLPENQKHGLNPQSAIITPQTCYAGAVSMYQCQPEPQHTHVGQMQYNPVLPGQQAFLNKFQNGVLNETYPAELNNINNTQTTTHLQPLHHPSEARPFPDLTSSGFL

[7] = A cytotoxicity screen of small molecule inhibitors of the PhoP region in Salmonella typhi identified in the primary screen. [Related pubchem assays: 1850, 1864, 1985 ]; type: functional
[8] = target: Heat shock protein HSP 90-alpha (Homo sapiens, UniProt P07900); type: functional, organism-based
H9c2 = test: cells; type: functional, cell-based; details: Rattus norvegicus, H9c2, Myocardium;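 also: confirmatory concentration-response retest of ultra-high-throughput screening hits for modulation of myocardial damage; cell death induced by hydrogen peroxide oxidative stress; compound pretreatment for 60 min then peroxide exposure for 2 h; potency is for protecting the cells against peroxide damage rather than for killing them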
[9] = target: T1, High affinity choline transporter 1; test: CHT activators, dose response, cell-based, 10-point CRC, membrane potential dye (AID 602376); type: functional
BJ [10] = test: cells; type: functional, cell-based; details: Homo sapiens
[11] = cytotoxicity toward DRD oncogenic fibroblasts, dose response, cell-based, non-viral oncogenic, luminescence (AID 1934); type: functional; details: Homo sapiens
[12] = Fluorescence-based cell-based high throughput dose response assay for inhibitors of the interaction of nucleotide-binding oligomerization domain containing 2 (NOD2) and the receptor-interacting serine-threonine kinase 2 (RIPK2).; type: functional; details: Homo sapiens
BJ [13] = test: cytotoxicity toward Ras-transformed BJeLR fibroblasts, dose response, cell-based, alamar blue fluorescence, cherrypicked samples (AID 2631); type: functional; details: Homo sapiens;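 also: confirmatory dose-response assay in RAS-dependent BJ fibroblasts engineered with TERT, LT and ST, with cytotoxicity read by fluorescence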
BJ [14] = test: cytotoxicity toward BJ-TERT-LT-ST fibroblasts, dose response, cell-based, RAS-independent, luminescence (AID 1935); type: functional; details: Homo sapiens;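 also: BJ fibroblasts immortalized with TERT plus LT and ST oncogenes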
BJ [15] = test: cytotoxicity toward BJ-TERT fibroblasts, dose response, cell-based, RAS-independent, luminescence (AID 1933); type: functional; details: Homo sapiens
[16] = target: T2, Low molecular weight phosphotyrosine protein phosphatase (Homo sapiens, UniProt P24666); type: functional; details: read-out: IC50_Mean
T2 sequence (P24666 whole entry): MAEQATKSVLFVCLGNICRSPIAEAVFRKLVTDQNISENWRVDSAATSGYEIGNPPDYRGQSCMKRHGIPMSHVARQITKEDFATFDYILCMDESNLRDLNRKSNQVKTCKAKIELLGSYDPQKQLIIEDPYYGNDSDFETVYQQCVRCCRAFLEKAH

[17] = target: T3, Tyrosine-protein phosphatase non-receptor type 22 (Homo sapiens, UniProt Q9Y2R2); test: LYP phosphatase inhibition for selectivity, dose response, selectivity assay for LMPTP inhibitor project, biochemical, fluorescence, LYP catalytic domain (AID 652006); type: functional; details: read-out: IC50_Mean
T3 sequence (Q9Y2R2 whole entry): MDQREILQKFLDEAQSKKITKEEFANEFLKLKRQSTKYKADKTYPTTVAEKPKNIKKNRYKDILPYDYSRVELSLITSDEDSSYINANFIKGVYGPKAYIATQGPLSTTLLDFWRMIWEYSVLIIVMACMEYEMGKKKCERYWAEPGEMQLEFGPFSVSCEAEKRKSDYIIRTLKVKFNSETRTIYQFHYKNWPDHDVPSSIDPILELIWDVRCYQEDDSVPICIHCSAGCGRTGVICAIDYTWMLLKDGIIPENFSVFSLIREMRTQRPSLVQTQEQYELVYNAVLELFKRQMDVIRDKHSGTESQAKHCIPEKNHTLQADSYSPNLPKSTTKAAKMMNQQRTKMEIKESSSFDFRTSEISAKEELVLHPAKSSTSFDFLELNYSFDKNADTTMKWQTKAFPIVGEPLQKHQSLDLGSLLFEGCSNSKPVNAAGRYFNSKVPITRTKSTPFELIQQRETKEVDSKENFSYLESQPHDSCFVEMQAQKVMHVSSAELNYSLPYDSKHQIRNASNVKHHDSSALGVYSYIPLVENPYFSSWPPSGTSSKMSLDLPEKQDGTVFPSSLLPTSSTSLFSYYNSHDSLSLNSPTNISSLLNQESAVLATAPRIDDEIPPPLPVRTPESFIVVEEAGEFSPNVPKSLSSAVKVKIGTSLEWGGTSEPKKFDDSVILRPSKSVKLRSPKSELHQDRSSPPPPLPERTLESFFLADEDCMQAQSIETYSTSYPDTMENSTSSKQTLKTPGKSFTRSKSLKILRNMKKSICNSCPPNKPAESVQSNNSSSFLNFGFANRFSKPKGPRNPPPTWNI

[18] = target: T2, Low molecular weight phosphotyrosine protein phosphatase; type: functional; details: read-out: IC50_Mean; remark: listed apart in the source
[19] = target: Nuclear receptor subfamily 5 group A member 2 (Homo sapiens, UniProt O00482); type: functional, cell-based;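 also: HEK293T cells transfected with LRH-1 and a StAR promoter luciferase reporter; potency for inhibitors that lower LRH-1 driven reporter light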
Sequence of Nuclear receptor subfamily 5 group A member 2 (O00482 whole entry): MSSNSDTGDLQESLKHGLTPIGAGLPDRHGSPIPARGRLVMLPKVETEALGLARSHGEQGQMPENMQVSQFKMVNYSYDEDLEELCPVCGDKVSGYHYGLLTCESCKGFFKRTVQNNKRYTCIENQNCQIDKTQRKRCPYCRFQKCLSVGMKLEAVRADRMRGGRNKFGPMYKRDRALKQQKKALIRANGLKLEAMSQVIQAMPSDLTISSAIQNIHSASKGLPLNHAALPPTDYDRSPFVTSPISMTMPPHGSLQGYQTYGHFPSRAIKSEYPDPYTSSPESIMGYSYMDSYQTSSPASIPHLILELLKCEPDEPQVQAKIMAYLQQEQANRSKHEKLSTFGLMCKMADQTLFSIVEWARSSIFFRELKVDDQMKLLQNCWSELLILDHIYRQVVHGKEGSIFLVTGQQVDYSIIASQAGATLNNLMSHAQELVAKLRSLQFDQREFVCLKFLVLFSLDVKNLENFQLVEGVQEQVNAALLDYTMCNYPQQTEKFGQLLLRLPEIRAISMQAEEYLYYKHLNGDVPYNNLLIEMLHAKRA

cells = type: functional
[20] = StAR promoter reporter inhibition counter-screen, dose response, counter-screen for LRH-1 inverse agonist project, cell-based, luminescence, luciferase reporter (AID 651969); type: functional
H4 = test: Luminescence Cell-Based Dose Response HTS to Identify Activators of 5'UTR Stem-Loop Driven Prion Protein mRNA Translation in H4 Neuroglioblastoma Cells. [Related pubchem assays: 1829 (Project Summary), 1814 (Primary HTS)]; type: functional; details: Homo sapiens
Steroidogenic factor 1 = Steroidogenic factor 1 (Homo sapiens, UniProt Q13285); test: Counterscreen for inverse agonists of the liver receptor homolog-1 (LRH-1; NR5A2): Luminescence-based cell-based high throughput dose response assay to identify inverse agonists of the Steroidogenic Factor 1 Nuclear Receptor (SF1; NR5A1).; type: functional
Sequence of Steroidogenic factor 1 (Q13285 whole entry): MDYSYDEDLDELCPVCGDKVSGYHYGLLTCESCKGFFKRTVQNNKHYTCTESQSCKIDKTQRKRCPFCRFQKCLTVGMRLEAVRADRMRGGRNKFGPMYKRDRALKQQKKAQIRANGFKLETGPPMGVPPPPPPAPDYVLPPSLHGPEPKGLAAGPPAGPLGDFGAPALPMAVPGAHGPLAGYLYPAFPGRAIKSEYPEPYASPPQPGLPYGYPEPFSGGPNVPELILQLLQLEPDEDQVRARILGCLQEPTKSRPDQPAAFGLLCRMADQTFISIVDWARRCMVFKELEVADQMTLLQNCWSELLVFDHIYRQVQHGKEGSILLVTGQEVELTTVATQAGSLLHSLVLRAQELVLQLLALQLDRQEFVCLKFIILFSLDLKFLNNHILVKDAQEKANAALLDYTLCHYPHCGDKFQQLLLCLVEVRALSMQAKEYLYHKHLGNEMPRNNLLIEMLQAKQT

[21] = Luminescence Cell-Based Dose Retest to Confirm Inhibitors of Cancer Stem Cells. [Related pubchem assays (depositor defined):AID2717, AID2721]; type: functional, Homo sapiens; details: Homo sapiens
[22] = Luminescence Cell-Based Dose Response HTS to Identify Activators of Luciferase Translation or Activity in H4 […] Cells. [Related pubchem assays: 1829 (Project Summary), 1814 (Primary HTS)]; type: functional
[23] = Vero E6 cell cytotoxicity, dose response, cytotoxicity control for non-replicating M. tuberculosis project, secondary assay (AID 492998); type: functional, VeroE6; details: Vero C1008
[24] = THP-1 cell cytotoxicity, dose response, cytotoxicity control for non-replicating M. tuberculosis project (AID 489025); type: functional
[25] = Luminescence Cell-Based Dose Confirmation HTS to Identify Activators of 5'UTR Stem-Loop Driven Alpha-Synuclein mRNA Translation in H4 Neuroglioblastoma Cells. [Related pubchem assays: 1829 (Project Summary), 1814 (Primary HTS)]; type: functional
[26] = CRF-BP/CRF-R2 complex antagonists, dose response, cell-based, uHTS hits, 384-well (AID 651639); type: functional, Homo sapiens; details: read-out: IC50_Mean
[27] = target: T4, Corticotropin-releasing factor receptor 2/Corticotropin-releasing factor-binding protein (Homo sapiens, UniProt P24387+Q13324); test: Dose Response confirmation of uHTS hits for small molecule antagonists of the CRF-binding protein and CRF-R2 receptor complex.; type: functional; details: read-out: IC50_Mean
T4 sequence (Q13324 whole entry): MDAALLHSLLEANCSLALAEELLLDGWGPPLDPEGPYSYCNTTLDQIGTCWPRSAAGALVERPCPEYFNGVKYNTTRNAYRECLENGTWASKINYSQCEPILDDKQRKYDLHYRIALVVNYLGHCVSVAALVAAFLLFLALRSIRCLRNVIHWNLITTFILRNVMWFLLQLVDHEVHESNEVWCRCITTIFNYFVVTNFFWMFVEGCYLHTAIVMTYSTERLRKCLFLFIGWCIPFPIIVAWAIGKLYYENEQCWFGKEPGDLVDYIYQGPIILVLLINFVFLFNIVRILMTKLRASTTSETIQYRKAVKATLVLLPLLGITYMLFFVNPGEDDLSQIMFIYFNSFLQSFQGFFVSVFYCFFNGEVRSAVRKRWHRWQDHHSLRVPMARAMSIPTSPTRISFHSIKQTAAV
T4 sequence (P24387 whole entry): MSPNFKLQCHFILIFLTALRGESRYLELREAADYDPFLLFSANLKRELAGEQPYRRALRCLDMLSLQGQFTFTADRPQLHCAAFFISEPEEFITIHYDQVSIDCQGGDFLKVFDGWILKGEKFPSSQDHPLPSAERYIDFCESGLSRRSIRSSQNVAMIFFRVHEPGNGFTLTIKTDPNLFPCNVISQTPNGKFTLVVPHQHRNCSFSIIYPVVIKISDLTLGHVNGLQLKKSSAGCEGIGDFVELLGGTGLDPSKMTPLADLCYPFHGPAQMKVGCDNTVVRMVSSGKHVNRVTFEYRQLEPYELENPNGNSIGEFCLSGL

[28] = target: T4, Corticotropin-releasing factor receptor 2/Corticotropin-releasing factor-binding protein; test: activators of CRF receptor 2 with binding protein – uHTS hits, confirmation (AID 602473); type: functional; details: read-out: EC50_Mean

Sequence of Luciferin 4-monooxygenase (P08659 whole entry): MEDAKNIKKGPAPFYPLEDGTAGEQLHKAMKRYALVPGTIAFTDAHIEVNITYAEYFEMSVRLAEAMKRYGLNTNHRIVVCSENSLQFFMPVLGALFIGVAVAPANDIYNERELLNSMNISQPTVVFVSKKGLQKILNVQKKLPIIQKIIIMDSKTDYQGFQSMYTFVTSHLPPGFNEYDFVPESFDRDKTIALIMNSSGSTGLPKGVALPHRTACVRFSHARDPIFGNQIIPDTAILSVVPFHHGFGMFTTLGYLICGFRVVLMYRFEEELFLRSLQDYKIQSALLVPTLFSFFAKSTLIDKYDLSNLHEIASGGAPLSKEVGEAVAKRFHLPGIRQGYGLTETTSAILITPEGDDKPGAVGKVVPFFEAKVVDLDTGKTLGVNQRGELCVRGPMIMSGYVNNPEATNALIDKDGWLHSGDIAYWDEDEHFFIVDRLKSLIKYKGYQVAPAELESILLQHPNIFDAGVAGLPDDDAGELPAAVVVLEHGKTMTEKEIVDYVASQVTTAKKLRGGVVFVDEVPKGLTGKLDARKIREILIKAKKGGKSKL

Cc1cccc(C)c1OCc1cc(C(=O)N2CCC(c3ccncc3)CC2)no1
EC50 [1]: > 112 µM (not active) | EC50 [2]: > 112 µM (not active) | IC50 [3]: 6.23 µM (active)

O=c1c2ccccc2[nH]c(=S)n1CCN1CCCCC1
IC50 [4]: 7.94 µM (active) | IC50 [5]: 8.77 µM (active)

O=c1cc(-c2ccc(O)cc2)oc2cc(O)cc(O)c12 [APIGENIN]
AC50 [6]: 35.5 µM (inconclusive) and 28.2 µM (inconclusive)

Cc1c(/N=C/c2cc(Br)cc(Br)c2O)cccc1C(=O)O
EC50 [7]: > 50 µM (active) | IC50 [4]: 2.67 µM (active) | IC50 [5]: 3.44 µM (active) | AC50 [8]: 3.56 µM (active) | IC50 (H9c2): 20 µM (active)

CCOC(=O)c1ccc(NC(=O)Nc2ccon2)cc1
EC50 [9]: 8.42 µM (active) | EC50 (BJ [10]): 20.1 µM (active) | EC50 [11]: 0.429 µM (active) | IC50 [12]: 49.7 µM (inactive) | EC50 (BJ [13]): < 0.104 µM (active) | EC50 (BJ [14]): 0.469 µM (active) | EC50 (BJ [15]): 0.401 µM (active)

COc1ccccc1CNc1nc(NCc2ccc(NC(C)=O)cc2)c2sccc2n1
IC50 [16]: 5.86 µM (active) | IC50 [17]: 50.4 µM (inactive) | IC50 [18]: 17.7 µM (active)

O=C(Nc1ccc(S(=O)(=O)N2CCOCC2)cc1)c1ccc([N+](=O)[O-])o1
IC50 [19]: 10.8 µM (inactive) | IC50 (cells): 6.7 µM (active) | IC50 [20]: 35.9 µM (inactive) | EC50 (H4): > 120 µM (not active) | IC50 (Steroidogenic factor 1): 0.443 µM (active) | AC50 [21]: 3.43 µM (active) | EC50 [22]: > 120 µM (not active) | CC50 [23]: 3.98 µM (active) | CC50 [24]: 4.04 µM (active) | EC50 [25]: > 120 µM (not active)

COC(=O)c1ccc(Sc2ccc(Cl)cc2)c(N)c1
IC50 [26]: > 20 µM (inactive) | IC50 [27]: < 0.368 µM (active) | EC50 [28]: > 53 µM (inactive)

Reference: ChEMBL document CHEMBL1201862, “PubChem BioAssay data set” (2004)
